Columns and labels:
MDA-MB-231 xenografts = assay: MDA-MB-231 breast xenograft model, antitumor efficacy; assay type: in vivo, female nude rats; conditions: Compound 1 50 mg/kg QW×7 iv infusion, liposomal formulation
[1] = tested on: BT-474 breast cancer cell line; assay: 72 hours CellTiter-Glo proliferation assay, BT-474; assay type: cell-based; conditions: single agent, read-out: Abs IC50
Procedure: (§1) Compounds were dissolved in 100% DMSO (Sigma, Catalog # D2438-50 ML) at a stock concentration of 10 mM and stored at −20° C. until use. Compounds were arrayed in 2 ml deep 96-well plates (Greiner bio-one, catalog number 780271) serially diluted 3-fold. Compound 1 was used over a concentration range of 0.0-10.0 μM. Paclitaxel was used over a concentration range of 0.0-1.0 μM in breast cancer cells and 0.0-2.0 μM range in lung cancer cells.
(§2) All cell lines were purchased from the American Type Culture Collection and cultured according to vendor recommendations. […] All cell lines were determined to be free of mycoplasma contamination by a PCR detection assay performed at Idexx Radil (Columbia, Mo., USA) and authenticated by SNP analysis. […] Cells were expanded to T-75 flasks and assessed for viability using a Beckman-Coulter ViCell counter prior to plating. […]
(§3) Cell proliferation was measured in 72 hours CellTiter-Glo™ (CTG) assays and all results shown are the result of at least triplicate measurements. […] After 72 hours of compound treatment the effects of compounds on cell proliferation was determined using the CellTiter-Glo™ Luminescent Cell Viability Assay (Promega, Catalog # G7573). This is a homogeneous method to determine the number of viable cells in culture based on quantitation of the ATP present, which signals the presence of metabolically active cells. […]

[2] = tested on: BT-20 breast cancer cell line; assay: 72 hours CellTiter-Glo proliferation assay, BT-20; assay type: cell-based; conditions: single agent, read-out: Abs IC50
Procedure: as §1, §2, §3

[3] = MDA-MB-231 breast xenograft model, tolerability and surviving animals; assay type: in vivo, female nude rats; conditions: Compound 1 50 mg/kg dosed 0.5 h or 16 h after vehicle for paclitaxel
Procedure: This study evaluated the antitumor activity and tolerability of Compound 1 in combination with paclitaxel in the triple negative breast cancer (TNBC) model, MDA-MB-231, in female NTac:NIH-Whn nude rats (Taconic).
Compound 1 (free base) and paclitaxel (Sandoz) was used in these studies. Paclitaxel was diluted as per manufacturer's instruction with sterile 5% (w/v) glucose solution to 1.5 mg/ml to administer 7.5 mg/kg in 5 ml/kg dose volume [final ethanol and Cremophor EL concentration was 10 and 15%, respectively in 5% (w/v) glucose solution]. Compound 1 was formulated in a liposomal formulation (Novartis) at 5 mg/ml to administer 50 mg/kg dose in 10 ml/kg dose volume.
MDA-MB-231, a triple negative breast cancer cell line, was obtained from ATCC cell bank. […] Tumor growth was monitored regularly post cell inoculation and animals were randomised into treatment groups (n=7-8) with a mean tumor volume of about 400 mm^3. […]
The vehicle for paclitaxel or paclitaxel was administered once a week (QW) as a slow bolus dose via a caudal vein 0.5 h or 16 h before the vehicle for Compound 1 or Compound 1 itself in liposomal formulation and these were administered by iv infusion over 15 minutes in a caudal vein. […] Tumor volumes were measured using calipers 2-3 times per week. Tumor size, in mm^3, was calculated from: (L×W^2×π/6), where W=width and L=length of the tumor. […]

[4] = tested on: HCC1143 breast cancer cell line; assay: 72 hours CellTiter-Glo proliferation assay, HCC1143; assay type: cell-based; conditions: single agent, read-out: Abs IC50
Procedure: as §1, §2, §3

COc1ccccc1-c1nccc(COc2ccccc2C[C@@H](Oc2ncnc3sc(-c4ccc(F)cc4)c(-c4ccc(OCCN5CCN(C)CC5)c(Cl)c4C)c23)C(=O)O)n1 [Compound 1, (2R)-2-{[(5Sa)-5-{3-chloro-2-methyl-4-[2-(4-methylpiperazin-1-yl)ethoxy]phenyl}-6-(4-fluorophenyl)thieno[2,3-d]pyrimidin-4-yl]oxy}-3-(2-{[2-(2-methoxyphenyl)pyrimidin-4-yl]methoxy}phenyl)propanoic acid]
efficacy (MDA-MB-231 xenografts): no efficacy
IC50 [1]: 1.26 µM
IC50 [2]: 0.653 µM
tolerability [3]: well tolerated
IC50 [4]: > 10 µM
